Test results reported in PubChem BioAssay (NCI).
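Exposure lasted 48 hours, with cells grown in 96-well plates and compounds tested at five concentrations. TGI denotes the concentration required for complete inhibition of growth.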

Columns and labels:
Test in all cases: NCI-60 cell line screen, 48 h
786-0 renal = system: 786-0 renal
A498 renal = system: A498 renal
A549 NSCLC = system: A549 NSCLC
ACHN renal = system: ACHN renal
CAKI-1 renal = system: CAKI-1 renal
CCRF-CEM leukemia = system: CCRF-CEM leukemia
COLO 205 colon = system: COLO 205 colon
DLD-1 colon = system: DLD-1 colon
DMS 114 small cell lung = system: DMS 114 small cell lung
DMS 273 small cell lung = system: DMS 273 small cell lung
EKVX NSCLC = system: EKVX NSCLC
HCC-2998 colon = system: HCC-2998 colon
HCT-116 colon = system: HCT-116 colon
HCT-15 colon = system: HCT-15 colon
HL-60(TB) leukemia = system: HL-60(TB) leukemia
HOP-18 NSCLC = system: HOP-18 NSCLC
HOP-62 NSCLC = system: HOP-62 NSCLC
HOP-92 NSCLC = system: HOP-92 NSCLC
HT29 colon = system: HT29 colon
IGROV1 ovarian = system: IGROV1 ovarian
K-562 leukemia = system: K-562 leukemia
KM12 colon = system: KM12 colon
KM20L2 colon = system: KM20L2 colon
LOX IMVI melanoma = system: LOX IMVI melanoma
LXFL 529 NSCLC = system: LXFL 529 NSCLC
M14 melanoma = system: M14 melanoma
MALME-3M melanoma = system: MALME-3M melanoma
MOLT-4 leukemia = system: MOLT-4 leukemia
NCI-H226 lung = system: NCI-H226 lung
NCI-H23 lung = system: NCI-H23 lung
NCI-H460 lung = system: NCI-H460 lung
NCI-H522 lung = system: NCI-H522 lung
OVCAR-3 ovarian = system: OVCAR-3 ovarian
OVCAR-4 ovarian = system: OVCAR-4 ovarian
OVCAR-5 ovarian = system: OVCAR-5 ovarian
OVCAR-8 ovarian = system: OVCAR-8 ovarian
RPMI-8226 leukemia = system: RPMI-8226 leukemia
RXF 393 renal = system: RXF 393 renal
RXF-631 renal = system: RXF-631 renal
SF-268 CNS = system: SF-268 CNS
SF-295 CNS = system: SF-295 CNS
SF-539 CNS = system: SF-539 CNS
SK-MEL-2 melanoma = system: SK-MEL-2 melanoma
SK-MEL-28 melanoma = system: SK-MEL-28 melanoma
SK-MEL-5 melanoma = system: SK-MEL-5 melanoma
SK-OV-3 ovarian = system: SK-OV-3 ovarian
SN12C renal = system: SN12C renal
SNB-19 CNS = system: SNB-19 CNS
SNB-75 CNS = system: SNB-75 CNS
SNB-78 CNS = system: SNB-78 CNS
SR leukemia = system: SR leukemia
SW-620 colon = system: SW-620 colon
U251 CNS = system: U251 CNS
UACC-257 melanoma = system: UACC-257 melanoma
UACC-62 melanoma = system: UACC-62 melanoma
UO-31 renal = system: UO-31 renal
M19-MEL melanoma = system: M19-MEL melanoma
TK-10 renal = system: TK-10 renal

## Cc1ccc(N=Nc2c(-c3ccccc3)nn(C(=O)CC(=O)Nc3ccc(Cl)cc3)c2-c2ccccc2)cc1
786-0 renal
  TGI: > 100 µM
A498 renal
  TGI: 94.9 µM
A549 NSCLC
  TGI: > 100 µM
ACHN renal
  TGI: > 100 µM
CAKI-1 renal
  TGI: > 100 µM
CCRF-CEM leukemia
  TGI: 72.5 µM
COLO 205 colon
  TGI: > 100 µM
DLD-1 colon
  TGI: > 100 µM
DMS 114 small cell lung
  TGI: > 100 µM
DMS 273 small cell lung
  TGI: > 100 µM
EKVX NSCLC
  TGI: 18.3 µM
HCC-2998 colon
  TGI: > 100 µM
HCT-116 colon
  TGI: > 100 µM
HCT-15 colon
  TGI: > 100 µM
HL-60(TB) leukemia
  TGI: > 100 µM
HOP-18 NSCLC
  TGI: > 100 µM
HOP-62 NSCLC
  TGI: > 100 µM
HOP-92 NSCLC
  TGI: 66.9 µM
HT29 colon
  TGI: > 100 µM
IGROV1 ovarian
  TGI: > 100 µM
K-562 leukemia
  TGI: > 100 µM
KM12 colon
  TGI: > 100 µM
KM20L2 colon
  TGI: > 100 µM
LOX IMVI melanoma
  TGI: > 100 µM
LXFL 529 NSCLC
  TGI: 94.5 µM
M14 melanoma
  TGI: > 100 µM
MALME-3M melanoma
  TGI: > 100 µM
MOLT-4 leukemia
  TGI: 79.1 µM
NCI-H226 lung
  TGI: > 100 µM
NCI-H23 lung
  TGI: > 100 µM
NCI-H460 lung
  TGI: > 100 µM
NCI-H522 lung
  TGI: > 100 µM
OVCAR-3 ovarian
  TGI: 99.6 µM
OVCAR-4 ovarian
  TGI: > 100 µM
OVCAR-5 ovarian
  TGI: > 100 µM
OVCAR-8 ovarian
  TGI: > 100 µM
RPMI-8226 leukemia
  TGI: 86.7 µM
RXF 393 renal
  TGI: 99.6 µM
RXF-631 renal
  TGI: > 100 µM
SF-268 CNS
  TGI: > 100 µM
SF-295 CNS
  TGI: > 100 µM
SF-539 CNS
  TGI: > 100 µM
SK-MEL-2 melanoma
  TGI: > 100 µM
SK-MEL-28 melanoma
  TGI: > 100 µM
SK-MEL-5 melanoma
  TGI: > 100 µM
SK-OV-3 ovarian
  TGI: > 100 µM
SN12C renal
  TGI: > 100 µM
SNB-19 CNS
  TGI: > 100 µM
SNB-75 CNS
  TGI: 73.5 µM
SNB-78 CNS
  TGI: > 100 µM
SR leukemia
  TGI: 57.3 µM
SW-620 colon
  TGI: > 100 µM
U251 CNS
  TGI: > 100 µM
UACC-257 melanoma
  TGI: > 100 µM
UACC-62 melanoma
  TGI: > 100 µM
UO-31 renal
  TGI: 86.3 µM

## COc1ccc(OC)c2c(C(=O)O)c(C(C)c3ccccc3)ccc12 (centres undefined)
786-0 renal
  TGI: > 100 µM
A498 renal
  TGI: > 100 µM
A549 NSCLC
  TGI: > 100 µM
ACHN renal
  TGI: > 100 µM
CAKI-1 renal
  TGI: > 100 µM
CCRF-CEM leukemia
  TGI: > 100 µM
COLO 205 colon
  TGI: > 100 µM
DLD-1 colon
  TGI: > 100 µM
DMS 273 small cell lung
  TGI: > 100 µM
EKVX NSCLC
  TGI: > 100 µM
HCC-2998 colon
  TGI: > 100 µM
HCT-116 colon
  TGI: > 100 µM
HCT-15 colon
  TGI: > 100 µM
HL-60(TB) leukemia
  TGI: > 100 µM
HOP-18 NSCLC
  TGI: > 100 µM
HOP-62 NSCLC
  TGI: > 100 µM
HT29 colon
  TGI: > 100 µM
IGROV1 ovarian
  TGI: > 100 µM
K-562 leukemia
  TGI: > 100 µM
KM12 colon
  TGI: > 100 µM
KM20L2 colon
  TGI: > 100 µM
LOX IMVI melanoma
  TGI: > 100 µM
LXFL 529 NSCLC
  TGI: > 100 µM
M14 melanoma
  TGI: > 100 µM
M19-MEL melanoma
  TGI: > 100 µM
MALME-3M melanoma
  TGI: > 100 µM
MOLT-4 leukemia
  TGI: > 100 µM
NCI-H226 lung
  TGI: > 100 µM
NCI-H23 lung
  TGI: > 100 µM
NCI-H460 lung
  TGI: > 100 µM
NCI-H522 lung
  TGI: > 100 µM
OVCAR-3 ovarian
  TGI: > 100 µM
OVCAR-4 ovarian
  TGI: > 100 µM
OVCAR-5 ovarian
  TGI: > 100 µM
OVCAR-8 ovarian
  TGI: > 100 µM
RXF 393 renal
  TGI: > 100 µM
RXF-631 renal
  TGI: > 100 µM
SF-268 CNS
  TGI: > 100 µM
SF-295 CNS
  TGI: > 100 µM
SK-MEL-2 melanoma
  TGI: > 100 µM
SK-MEL-28 melanoma
  TGI: > 100 µM
SK-MEL-5 melanoma
  TGI: > 100 µM
SK-OV-3 ovarian
  TGI: > 100 µM
SN12C renal
  TGI: > 100 µM
SNB-19 CNS
  TGI: > 100 µM
SNB-75 CNS
  TGI: > 100 µM
SR leukemia
  TGI: > 100 µM
SW-620 colon
  TGI: > 100 µM
TK-10 renal
  TGI: > 100 µM
U251 CNS
  TGI: > 100 µM
UACC-257 melanoma
  TGI: > 100 µM
UACC-62 melanoma
  TGI: > 100 µM
UO-31 renal
  TGI: > 100 µM
